Experiment [1] concerns the target T1, gp16 ATPase (ϕ29 motor ATPase gp16) (Bacillus phage phi29, UniProt P11014).
T1 construct: gene 16; full-length gp16 with tags: SUMO-gp16 (Trp fluorescence), His-gp16 (trypsin probing), eGFP-gp16 (EMSA; N-terminal eGFP); homohexamer, monomer/dimer mixture in solution
T1 sequence (P11014 1-332): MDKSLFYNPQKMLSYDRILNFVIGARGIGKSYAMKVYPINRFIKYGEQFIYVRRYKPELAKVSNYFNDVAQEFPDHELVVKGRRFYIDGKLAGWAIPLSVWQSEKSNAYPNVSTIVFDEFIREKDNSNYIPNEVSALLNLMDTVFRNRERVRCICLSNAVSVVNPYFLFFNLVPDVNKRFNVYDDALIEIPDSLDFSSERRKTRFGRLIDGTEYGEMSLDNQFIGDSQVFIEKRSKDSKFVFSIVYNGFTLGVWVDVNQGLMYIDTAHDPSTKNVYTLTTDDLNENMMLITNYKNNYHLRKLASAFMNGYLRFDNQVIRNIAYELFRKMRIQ
The experiment can be described thus: intrinsic tryptophan fluorescence (SUMO-gp16); also trypsin probing (His-gp16). Type of experiment: binding. Particulars: 2 mM Tris pH 8.0, 0.005% Tween 20, 1.5% PEG 8000, 0.5% acetone; excitation 280 nm.

For experiment [2], the target named is T1, gp16 ATPase (ϕ29 motor ATPase gp16). The experiment can be described thus: fluorescent phosphate binding protein assay of ATP hydrolysis. The class given is biochemical. Particulars: DNA-dependent ATPase; tag in this assay not stated.
Experiment [3] shares this target. The experiment can be described thus: EMSA with 33-bp Cy5-dsDNA (nucleotide-dependent DNA binding; indirect). Particulars: nonhydrolysable ATP analog; 33-bp Cy5-dsDNA present; ambient temperature, 20 min. For orientation: A gel shift assay detects complexes by their altered migration in electrophoresis.

As to `Nc1ncnc2c1ncn2[C@@H]1O[C@H](COP(=O)(O)OP(=O)(O)OP(=O)(O)O)[C@@H](O)[C@H]1O` [ATP], the “intrinsic tryptophan fluorescence (SUMO-gp16); also trypsin probing (His-gp16)” value in experiment [1] is “both assays indicated a conformational change in the gp16-ATP complex”. Moreover, the “fluorescent phosphate binding protein assay of ATP hydrolysis” value in experiment [2] is reported as “a phosphate binding protein conjugated to a fluorescent probe ... was used to assay ATP hydrolysis”.

`Nc1ncnc2c1ncn2[C@@H]1O[C@H](COP(=O)(O)OP(=O)(O)OP(O)(O)=S)[C@@H](O)[C@H]1O` [γ-S-ATP]: the “EMSA with 33-bp Cy5-dsDNA (nucleotide-dependent DNA binding; indirect)” value in experiment [3] is recorded as “Stronger binding of gp16 to dsDNA was observed when gp16 was incubated with γ-S-ATP”.

Source of the values: article PMC5021374, “An Arginine Finger Regulates the Sequential Action of Asymmetrical Hexameric ATPase in the Double-Stranded DNA Translocation Motor” (Molecular and Cellular Biology, 2016).
